# Columns and labels:
# Assay type in all cases: biochemical
# Settings in all cases: inhibit 50% of activity at 50 μM
# JAK3 = target: T1, JAK3 (Homo sapiens, UniProt P52333); assay: JAK3 kinase domain capture-based ELISA kinase assay
# T1 construct: The kinase domain of humanJAK3 was amplified from U937mRNA; His tag (from pFastBac HTb vector; nickel chelate purification) (N); made in house; host or cells: baculovirus; virus made in Sf9, large-scale expression in High Five insect cells
# Description: (§1) For screening purposes, compounds were diluted in 96 well plates at a concentration of 50 μM or 20 μM. Plates were warmed at 37° C. for 30 minutes before assay.
# The kinase domain of humanJAK3 was amplified from U937mRNA using the polymerase chain reaction with the following primers: […]
# JAK3 PCR products were cloned into the pFastBac HTb expression vector (Gibco) via the Xho I and Kpn I sites. The JAK3 plasmid was then transformed into competent DH10Bac cells (Gibco), and the recombinant baculovirus produced prepared for transfection into Sf9 insect cells.
# (§2) Baculovirus preparations from each of the JAK family members were infected into five litres of High Five cells (Invitrogen) grown in High Five serum free medium (Invitrogen) to a cell density of approximately 1-2×10^6 cells/ml. Cells are infected with virus at a MOI of 0.8-3.0. Cells were harvested and lysed. JAK kinase domains were purified by affinity chromatography on a Probond (Invitrogen) nickel chelate affinity column.
# (§3) The biotinylated substrate biotin-EGPWLEEEEEAYGWMDF-NH2 (SEQ ID NO:9) (final concentration 5 μM) was used as substrate, and tyrosine phosphorylation was quantitated following transfer to an avidin coated ELISA plate using peroxidase-linked anti-phospho-tyrosine antibody PY20.
# (§4) Inhibitors were added to the assays fifteen minutes prior to the addition of ATP. Inhibitors were added in aqueous DMSO, with DMSO concentrations never exceeding 1%.
# JAK1 = target: T2, JAK1 (Homo sapiens, UniProt P23458); assay: JAK1 kinase domain capture-based ELISA kinase assay
# T2 construct: The kinase domain of humanJAK1 was amplified from U937mRNA; His tag (from pFastBac HTb vector; nickel chelate purification) (N); made in house; host or cells: baculovirus; virus made in Sf9, large-scale expression in High Five insect cells
# Description: as §1
# The kinase domain of humanJAK1 was amplified from U937mRNA using the polymerase chain reaction with the following primers: […]
# JAK1 PCR products were cloned into the pFastBac HTb expression vector (Gibco) via the Xho I and Kpn I sites. The JAK1 plasmid was then transformed into competent DH10Bac cells (Gibco), and the recombinant baculovirus produced prepared for transfection into Sf9 insect cells.
# as §2, §3, §4
# JAK2 = target: T3, JAK2 (Homo sapiens, UniProt O60674); assay: JAK2 kinase domain capture-based ELISA kinase assay
# T3 construct: The kinase domain of humanJAK2 was amplified from U937mRNA; His tag (from pFastBac HTc vector; nickel chelate purification) (N); made in house; host or cells: baculovirus; virus made in Sf9, large-scale expression in High Five insect cells
# Description: as §1
# The kinase domain of humanJAK2 was amplified from U937mRNA using the polymerase chain reaction with the following primers: […]
# JAK2 PCR products were cloned into the pFastBac HTc expression vector (Gibco) via the Sal I and Not I sites. The JAK2 plasmid was then transformed into competent DH10Bac cells (Gibco), and the recombinant baculovirus produced prepared for transfection into Sf9 insect cells.
# as §2, §3, §4
# TYK2 = target: T4, TYK2 (Homo sapiens, UniProt P29597); assay: TYK2 kinase domain capture-based ELISA kinase assay
# T4 construct: The kinase domain of humanTYK2 was amplified from A549 mRNA; His tag (from pBlueBacHis2A vector; nickel chelate purification) (N); made in house; host or cells: baculovirus; virus made in Sf9, large-scale expression in High Five insect cells
# T4 sequence (P29597 897-1176 limits assumed): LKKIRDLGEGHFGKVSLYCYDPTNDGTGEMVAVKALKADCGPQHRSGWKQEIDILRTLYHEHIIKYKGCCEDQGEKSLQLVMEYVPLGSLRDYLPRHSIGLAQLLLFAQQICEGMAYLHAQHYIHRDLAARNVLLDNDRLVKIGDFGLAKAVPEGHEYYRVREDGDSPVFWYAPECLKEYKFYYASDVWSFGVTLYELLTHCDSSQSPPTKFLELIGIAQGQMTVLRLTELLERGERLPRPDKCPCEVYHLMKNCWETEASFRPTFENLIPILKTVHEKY
# Description: as §1
# The kinase domain of humanTYK2 was amplified from A549 mRNA using the polymerase chain reaction with the following primers: […]
# TYK2 PCR products were cloned into pBlueBacHis2A (Invitrogen) via the EcoRI site. The recombinant TYK2 baculovirus produced was prepared for transfected into Sf9 insect cells.
# as §2, §3, §4
# T3 sequence (O60674 849-1124 limits assumed): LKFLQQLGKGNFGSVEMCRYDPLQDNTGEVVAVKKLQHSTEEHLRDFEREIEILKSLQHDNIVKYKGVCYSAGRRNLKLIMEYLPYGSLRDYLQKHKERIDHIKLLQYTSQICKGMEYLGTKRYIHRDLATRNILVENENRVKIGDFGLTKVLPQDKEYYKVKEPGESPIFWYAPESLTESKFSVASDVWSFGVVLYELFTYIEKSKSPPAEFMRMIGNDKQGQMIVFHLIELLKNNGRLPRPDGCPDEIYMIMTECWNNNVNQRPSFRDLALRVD
# T2 sequence (P23458 875-1153 limits assumed): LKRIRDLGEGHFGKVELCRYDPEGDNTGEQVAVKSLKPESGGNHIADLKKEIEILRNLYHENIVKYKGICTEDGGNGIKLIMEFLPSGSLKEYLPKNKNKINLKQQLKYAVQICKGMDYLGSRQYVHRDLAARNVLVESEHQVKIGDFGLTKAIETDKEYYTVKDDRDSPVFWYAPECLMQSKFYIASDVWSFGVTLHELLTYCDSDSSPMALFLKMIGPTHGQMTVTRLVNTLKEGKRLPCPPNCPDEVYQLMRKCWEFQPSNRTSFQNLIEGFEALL
# T1 sequence (P52333 822-1111 limits assumed): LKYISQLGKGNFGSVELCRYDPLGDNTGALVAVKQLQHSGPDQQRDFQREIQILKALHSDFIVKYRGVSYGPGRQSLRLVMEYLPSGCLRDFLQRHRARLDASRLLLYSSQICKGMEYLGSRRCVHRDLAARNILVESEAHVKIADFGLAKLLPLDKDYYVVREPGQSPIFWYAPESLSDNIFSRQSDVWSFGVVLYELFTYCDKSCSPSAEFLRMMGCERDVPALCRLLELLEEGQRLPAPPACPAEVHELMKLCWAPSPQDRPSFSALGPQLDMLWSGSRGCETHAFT
Compound,IC50 (JAK3; Table 5) [µM],IC50 (JAK1; Table 5) [µM],IC50 (JAK2; Table 5) [µM],IC50 (TYK2; Table 5) [µM],IC50 (JAK3; Table 6) [µM],IC50 (JAK1; Table 6) [µM],IC50 (JAK2; Table 6) [µM],IC50 (TYK2; Table 6) [µM]
Fc1ccccc1-c1cn2ccnc2c(NCc2ccccn2)n1,< 50,< 50,< 50,< 50,,,,
COc1cc(-c2cn3ccnc3c(NCc3ccccn3)n2)cc(OC)c1OC,< 50,< 50,< 50,< 50,,,,
CC(C)[C@H](CO)Nc1nc(-c2cccc(N)c2)cn2ccnc12,< 50,< 50,< 50,< 50,,,,
CC(=O)Nc1cccc(-c2cn3ccnc3c(N[C@@H](CO)C(C)C)n2)c1,< 50,< 50,< 50,< 50,,,,
CCCC/C=C/c1cn2ccnc2c(Nc2cccc(OCC(=O)N(C)C)c2)n1,< 50,< 50,< 50,< 50,,,,
COc1cc(-c2cn3ccnc3c(N[C@@H]3CCN(Cc4ccccc4)C3)n2)cc(OC)c1OC,< 50,< 50,< 50,< 50,,,,
COc1cc(-c2cn3ccnc3c(N3CCCN(C)CC3)n2)cc(OC)c1OC,< 50,< 50,< 50,< 50,,,,
c1ccc(CNc2nc(Nc3cccc4[nH]ccc34)cn3ccnc23)cc1,< 50,< 50,< 50,< 50,,,,
c1ccc(-c2cc(Nc3ccc4[nH]ccc4c3)c3nccn3c2)cc1,< 50,< 50,< 50,< 50,,,,
FC(F)(F)c1cc(-c2cn3ccnc3c(NCC3CCOCC3)n2)cc(C(F)(F)F)c1,,,,,> 50,> 50,< 50,> 50
c1ccc(-c2cn3ccnc3c(NCc3ccncc3)n2)cc1,,,,,> 50,< 50,> 50,> 50
CCN(CCO)c1ccc(Nc2nc(-c3cc(C(F)(F)F)cc(C(F)(F)F)c3)cn3ccnc23)cc1,,,,,> 50,> 50,< 50,> 50
Clc1ccccc1-c1cn2ccnc2c(NCc2ccccn2)n1,,,,,> 50,> 50,< 50,> 50
CCC(CO)Nc1nc(-c2ccco2)cn2ccnc12 (stereo not shown),,,,,< 50,< 50,< 50,> 50
CCN(CCO)c1ccc(Nc2nc(-c3c(OC)cccc3OC)cn3ccnc23)cc1,,,,,> 50,< 50,< 50,> 50
CCCC/C=C/c1cn2ccnc2c(NCCc2cccnc2)n1,,,,,< 50,> 50,> 50,> 50
CCCC/C=C/c1cn2ccnc2c(NCc2ccncc2)n1,,,,,< 50,> 50,> 50,> 50
CC(C)[C@H](CO)Nc1nc(-c2ccc(C(=O)O)cc2)cn2ccnc12,,,,,< 50,> 50,< 50,> 50
c1cn2cc(-c3ccc4c(c3)OCO4)nc(NC3CC3)c2n1,,,,,> 50,< 50,> 50,< 50
CN1CCN(c2nc(-c3cccnc3)cn3ccnc23)CC1,,,,,> 50,< 50,> 50,> 50
COc1cc(-c2cn3ccnc3c(NCC3CC3)n2)ccc1O,,,,,> 50,< 50,> 50,> 50
COc1cc(-c2cn3ccnc3c(NC3CC3)n2)ccc1O,,,,,< 50,< 50,< 50,> 50

# Second part, the compound after the results:
IC50 (JAK3; Table 5) [µM],IC50 (JAK1; Table 5) [µM],IC50 (JAK2; Table 5) [µM],IC50 (TYK2; Table 5) [µM],IC50 (JAK3; Table 6) [µM],IC50 (JAK1; Table 6) [µM],IC50 (JAK2; Table 6) [µM],IC50 (TYK2; Table 6) [µM],Compound
< 50,< 50,< 50,< 50,,,,,O=C(NCCO)c1cccc(-c2cn3ccnc3c(Nc3ccc(N4CCOCC4)cc3)n2)c1
< 50,< 50,< 50,< 50,,,,,COc1cccc(OC)c1-c1cn2ccnc2c(Nc2ccc(N3CCOCC3)cc2)n1
< 50,< 50,< 50,< 50,,,,,CC(=O)Nc1ccc(Nc2nc(-c3ccc(O)cc3)cn3ccnc23)cc1
< 50,< 50,< 50,< 50,,,,,COc1ccc(Nc2nc(-c3ccc4ccccc4c3)cn3ccnc23)cn1
< 50,< 50,< 50,< 50,,,,,Cc1ccc(S(=O)(=O)Nc2ccc(Nc3nc(-c4ccccc4)cn4ccnc34)cc2)cc1
< 50,< 50,< 50,< 50,,,,,c1ccc2c(-c3cn4ccnc4c(Nc4ccc5cn[nH]c5c4)n3)cccc2c1
,,,,< 50,< 50,< 50,< 50,O=C(O)c1cccc(-c2cn3ccnc3c(Nc3ccc(N4CCOCC4)cc3)n2)c1
,,,,> 50,< 50,> 50,> 50,O=C(O)c1ccc(-c2cn3ccnc3c(N3CCN(c4ccccn4)CC3)n2)cc1
,,,,> 50,< 50,< 50,> 50,Cc1ccc(S(=O)(=O)Nc2ccc(Nc3nc(-c4cccc(C(=O)NCCN(C)C)c4)cn4ccnc34)cc2)cc1
,,,,> 50,< 50,< 50,< 50,CC(=O)Nc1ccc(Nc2nc(-c3ccc4ccccc4c3)cn3ccnc23)cc1
,,,,> 50,> 50,< 50,> 50,O=C(O)c1ccc(-c2cn3ccnc3c(N3CCN(c4ccncc4)CC3)n2)cc1
,,,,> 50,< 50,< 50,< 50,Cc1ccc(S(=O)(=O)Nc2ccc(Nc3nc(-c4cccc(N)c4)cn4ccnc34)cc2)cc1
,,,,< 50,< 50,< 50,< 50,O=C(O)c1ccc(-c2cn3ccnc3c(Nc3ccc(Cl)cc3)n2)cc1
,,,,< 50,< 50,< 50,< 50,CC(=O)Nc1ccc(Nc2nc(-c3ccccc3F)cn3ccnc23)cc1
,,,,> 50,< 50,< 50,< 50,c1ccc(Nc2nc(-c3ccc4c(c3)OCO4)cn3ccnc23)cc1
,,,,> 50,< 50,< 50,> 50,Oc1ccc(-c2cn3ccnc3c(Nc3ccccc3)n2)cc1
,,,,< 50,< 50,< 50,< 50,CC(=O)Nc1cccc(-c2cn3ccnc3c(Nc3ccccc3)n2)c1
,,,,< 50,< 50,< 50,< 50,CC(=O)c1ccc(-c2cn3ccnc3c(Nc3ccccc3)n2)s1
,,,,< 50,< 50,< 50,< 50,c1ccc(Nc2nc(-c3cccnc3)cn3ccnc23)cc1
,,,,> 50,< 50,< 50,< 50,Oc1cccc(-c2cn3ccnc3c(NC3CC3)n2)c1
,,,,< 50,< 50,< 50,> 50,CCNc1nc(-c2cccc(O)c2)cn2ccnc12
